Results reported in patent US6831199B1, “Pyrimidine compounds and derivatives thereof” (G. D. Searle & Co., priority 1995, dated 2004).
Where a name gives a salt, the structure may show the parent alone. Read-outs that look alike come from different tables or passages of the source.

Legend:
platelet rich plasma = assay: Human platelet rich plasma assay (ADP induced platelet aggregation); type: cell-based; settings: ADP induced platelet aggregation in human platelet rich plasma, read-out: Human PRP
Experimental: Human Platelet Rich Plasma Assays
Healthy aspirin free donors were selected from a pool of volunteers. The harvesting of platelet rich plasma and subsequent ADP induced platelet aggregation assays were performed as described in Zucker, M. B., “Platelet Aggregation Measured by the Photometric Method”, Methods in Enzymology 169(1989):117-133. Standard venipuncture techniques using a butterfly allowed the withdrawal of 45 mL of whole blood into a 60 mL syringe containing 5 mL of 3.8% trisodium citrate. Following thorough mixing in the syringe, the anti-coagulated whole blood was transferred to a 50 mL conical polyethylene tube. The blood was centrifuged at room temperature for 12 minutes at 200×g to sediment non-platelet cells. Platelet rich plasma was removed to a polyethylene tube and stored at room temperature until used. Platelet poor plasma was obtained from a second centrifugation of the remaining blood at 2000×g for 15 minutes. Platelet counts are typically 300,000 to 500,000 per microliter. Platelet rich plasma (0.45 mL) was aliquoted into siliconized cuvettes and stirred (1100 rpm) at 37° C. for 1 minute prior to adding 50 uL of pre-diluted test compound. After 1 minute of mixing, aggregation was initiated by the addition of 50 uL of 200 uM ADP. Aggregation was recorded for 3 minutes in a Payton dual channel aggregometer (Payton Scientific, Buffalo, N.Y.). The percent inhibition of maximal response (saline control) for a series of test compound dilutions was used to determine a dose response curve.

[1] = target: T1, Human vitronectin receptor (αvβ3) (Homo sapiens, UniProt P05106+P06756); assay: Vitronectin adhesion assay (solid phase receptor assay, competition with biotinylated vitronectin); type: binding; settings: read-out: AvB3 IC50
T1 construct: Human vitronectin receptor (αvβ3) was purified from human placenta; from tissue; host or cells: human placenta
Method in brief: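 Purified human αvβ3 coated overnight at 4 °C in TBS with 1.0 mM Ca++, Mg++, Mn++, pH 7.4; compounds (top final 1.0×10^−4 M) competed with 1 nM biotinylated vitronectin for 2 h at room temperature. Bound ligand detected by HRP anti-biotin/OPD at A450; values normalized to no-competitor controls, four-parameter curve fit.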

[2] = target: T2, Human fibrinogen receptor (αIIbβ3) (Homo sapiens, UniProt P05106+P08514); assay: Purified IIb/IIIa receptor assay (solid phase receptor assay, competition with biotinylated vitronectin); type: binding; settings: read-out: IIb/IIIa IC50
T2 construct: Human fibrinogen receptor (αIIbβ3) was purified from outdated platelets; from tissue; host or cells: outdated human platelets
Method in brief: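 Competition format: 1 nM biotinylated vitronectin plus test compound (highest 1.0×10^−4 M), 2 h at room temperature on wells coated with platelet-derived αIIbβ3. Buffer was TBS containing 1.0 mM Ca, Mg, Mn, pH 7.4. HRP anti-biotin readout at 450 nm; normalized to maximum binding, four-parameter curve fit.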

| Molecule | IC50 (platelet rich plasma; Homo sapiens, Platelet) | IC50 [1] | IC50 [2] | IC50 (platelet rich plasma) |
| --- | --- | --- | --- | --- |
| C#C[C@H](CC(=O)O)NC(=O)CNC(=O)c1cccc(NC(N)=O)c1 [Example 40, 3S-[[2-[[[3-(aminocarbonylamino)phenyl]carbonyl]amino]acetyl]amino]-4-pentynoic acid] | > 200000 nM | 10.3 nM | 834 nM |  |
| 3S-[[2-[[[3-[(aminoiminomethyl)amino]phenyl]carbonyl]amino]acetyl]amino]-4-hydroxybutanoic acid [Example 86] |  | 8.79 nM | 246 nM | > 200000 nM |
| N=C(N)Nc1cccc(C(=O)NCC(=O)NC(CC(=O)O)c2cc(Cl)cc(Br)c2O)c1 (racemic) [Example 233, (±)β-[[2-[[[3-[(aminoiminomethyl)amino]phenyl]carbonyl]amino]acetyl]amino]-3-bromo-5-chloro-2-hydroxybezenepropanoic acid, trifluoroacetate salt, monohydrate] |  | 3.31 nM | 647 nM | > 200000 nM |
| N#C/N=C(/NCc1cccnc1)Nc1cccc(C(=O)NCC(=O)NC(CC(=O)O)c2ccccc2)c1 (stereo not drawn) [Example 146, β-[[2-[[[3-[[(cyanoimino)[3-pyridinylmethyl)amino]methyl]amino]phenyl]carbonyl]amino]acetyl]amino]benzenepropanoic acid, bis(trifluoroacetate)salt] | > 200000 nM | 14.3 nM | 879 nM |  |
| N#C/N=C(/NCc1ccccn1)Nc1cccc(C(=O)NCC(=O)NC(CC(=O)O)c2ccccc2)c1 (stereo not drawn) [Example 144, β-[[2-[[[3-[[(cyanoimino)[2-pyridinylmethyl)amino]methyl]amino]phenyl]carbonyl]amino]acetyl]amino]benzenepropanoic acid, bis(trifluoroacetate)salt] | > 200000 nM | 55.3 nM | 5830 nM |  |
| O=C(O)CCNC(=O)Nc1cccc(C(=O)NCC(=O)NC(CC(=O)O)c2cccnc2)c1 (stereo not drawn) [Example 129, β-[[2-[[[3-[[[(2-carboxyethyl)amino]carbonyl]aminophenyl]carbonyl]amino]acetyl]amino]pyridine-3-propanoic acid, trifluoroacetate salt] | > 200000 nM | 68.9 nM | 9460 nM |  |
| O=C(O)CC(NC(=O)CNC(=O)c1ccc(Cl)c(NC2=NCCCCC2)c1)c1cccnc1 (racemic) [Example 21, (±)β-[[2-[[[4-chloro-3-[(3,4,5,6-tetrahydro-2H-azepin-7-yl)amino]phenyl]carbonyl]amino]acetyl]amino]pyridine-3-propanoic acid, bis TFA Salt] | > 200000 nM | 2.44 nM | 1910 nM |  |
| O=C(O)CCNC(=O)CNC(=O)c1cccc(NC(=O)NCc2ccccc2)c1 [Example 103, 3-[[2-[[[3-[[[(phenylmethyl)amino]carbonyl]amino]phenyl]carbonyl]amino]acetyl]amino]propanoic acid] | > 20000 nM | 16.6 nM | 19100 nM |  |
| O=C(O)CC(NC(=O)CNC(=O)c1cc(NC2=NCCCCC2)cc(NC2=NCCCCC2)c1)c1cccnc1 (racemic) [Example 22, (±)β-[[2-[[[3,5-bis[(3,4,5,6-tetrahydro-2H-azepin-7-yl)amino]phenyl]carbonyl]amino]acetyl]amino]pyridine-3-propanoic acid, tris(trifluoroacetate)salt] | > 200000 nM | 1.37 nM | 280 nM |  |
| N=C(Nc1cccc(C(=O)NCC(=O)NC(CC(=O)O)c2cccnc2)c1)c1ccccc1 (racemic) [Example 26, (±)β-[[2-[[[3-[(iminophenylmethyl]amino]phenyl]carbonyl]amino]acetyl]amino]pyridine-3-propanoic acid, bis(trifluoroacetate)salt] | > 200000 nM | 14.2 nM | 809 nM |  |
| O=C(O)CC(NC(=O)CNC(=O)c1cccc(NC(=O)NCc2cccc3ccccc23)c1)c1cccnc1 (stereo not drawn) [Example 131, β-[[2-[[[3-[[[(1-naphthalenylmethyl)amino]carbonyl]amino]phenyl]carbonyl]amino]acetyl]amino]pyridine-3-propanoic acid, trifluoroacetate salt] | > 20000 nM | 3.82 nM | 1760 nM |  |
| O=C(O)CC(NC(=O)CNC(=O)c1cccc(NC(=O)Nc2ccccc2)c1)c1cccnc1 (stereo not drawn) [Example 108, β-[[2-[[[3-[[(phenylamino]carbonyl]amino]phenyl]carbonyl]amino]acetyl]amino]pyridine-3-propanoic acid, trifluoroacetate salt] | > 200000 nM | 25.2 nM | 4870 nM |  |

More lines, main results first:

| IC50 (platelet rich plasma; Homo sapiens, Platelet) | IC50 [1] | IC50 [2] | Molecule | IC50 (platelet rich plasma) |
| --- | --- | --- | --- | --- |
| > 200000 nM | 6.35 nM | 732 nM | N=C(N)Nc1cccc(C(=O)NCC(=O)NC(CC(=O)O)c2ccccc2O)c1 (racemic) [Example 87, (±)sodium β-[[2-[[[3-[(aminoiminomethyl)amino]phenyl]carbonyl]amino]acetyl]amino]-2-hydroxybenzenepropanoate, sodium salt, trifluoroacetate salt] |  |
| > 200000 nM | 3.36 nM | 583 nM | N=C(N)Nc1cccc(C(=O)NCC(=O)NC(CC(=O)O)c2cc(Br)ccc2O)c1 (racemic) [Example 228, (±)β-[[2-[[[3-[(aminoiminomethyl)amino]phenyl]carbonyl]amino]acetyl]amino]-5-bromo-2-hydroxybenzenepropanoic acid, trifluoroacetate salt, monohydrate] |  |
| > 200000 nM | 76.9 nM | 8350 nM | CCOC(=O)CC(NC(=O)CNC(=O)c1cccc(NC(=N)N)c1)c1cccnc1 (racemic) [Example 1, (±)ethyl β-[[2-[[[3-[(aminoiminomethyl)amino]phenyl]carbonyl]amino]acetyl]amino]pyridine-3-propanoate, bis(trifluoroacetate)salt] |  |
| > 20000 nM | 2.56 nM | 209 nM | Cc1cc(C)cc(C(CC(=O)O)NC(=O)CNC(=O)c2cccc(NC(=N)N)c2)c1 (racemic) [Example 193, (±)β-[[2-[[[3-[(aminoiminomethyl)amino]phenyl]carbonyl]amino]acetyl]amino]-3,5-dimethylbenzenepropanoic acid, trifluoroacetate salt] |  |
| > 20000 nM | 12.2 nM | 1540 nM | N=C(N)Nc1cc(C(=O)NCC(=O)NC(CC(=O)O)c2cc(C(F)(F)F)cc(C(F)(F)F)c2)cc(C(F)(F)F)c1 (racemic) [Example 39, (±)β-[[(2-[[[3-[(aminoiminomethyl)amino]-5-(trifluoromethyl)phenyl]carbonyl]amino]acetyl]amino]-3,5-bis(trifluoromethyl)benzenepropanoic acid, trifluoroacetate salt] |  |
| > 20000 nM | 0.58 nM | 137 nM | N=C(N)Nc1cc(C(=O)NCC(=O)NC(CC(=O)O)c2cc(Cl)cc(Cl)c2)cc(C(F)(F)F)c1 (racemic) [Example 177, (±)β-[[2-[[[3-[(aminoiminomethyl)amino]-5-(trifluoromethyl)phenyl]carbonyl]amino]acetyl]amino]-3,5-dichlorobenzenepropanoic acid, trifluoroacetate salt] |  |
| > 200000 nM | 14.1 nM | 2640 nM | N=C(N)Nc1cccc(C(=O)NCC(=O)NC(CC(=O)O)c2cc(Br)cc(Br)c2O)c1 (racemic) [Example 227, (±)β-[[2-[[[3-[(aminoiminomethyl)amino]phenyl]carbonyl]amino]acetyl]amino]-3,5-dibromo-2-hydroxybenzenepropanoic acid, trifluoroacetate salt, monohydrate] |  |
| > 200000 nM | 60.1 nM | 20100 nM | NC(=S)Nc1cccc(C(=O)NCC(=O)NC(CC(=O)O)c2ccccc2)c1 (stereo not drawn) [Example 117, β-[[2-[[[3-[(aminothioxomethyl)amino]phenyl]carbonyl]amino]acetyl]amino]benzenepropanoic acid] |  |
| > 200000 nM | 12.1 nM | 830 nM | N=C(N)Nc1cccc(C(=O)NCC(=O)NC(CC(=O)O)c2cccc3ccccc23)c1 (racemic) [Example 41, (±)β-[[2-[[[3-[(aminoiminomethyl)amino]phenyl]carbonyl]amino]acetyl]amino]naphthalene-1-propanoic acid, trifluoroacetate salt] |  |
